Laboratory results published in patent US20080235824A1, “Use of Esterase Genes as Selectable Markers for Transforming Plant Cells” (priority 2006, published 2008).

What was measured:
[1] = tested on: geranium petiole explants; assay: Survival of geranium petiole explants on regeneration medium with detergents; type: cell-based, Pelargonium X hortorum; settings: for Survival of geranium petiole explants on regeneration medium: surviving/total explants
Protocol: Tween 20, a nonionic, fatty acid ester detergent, was evaluated as a potential selective agent for use in geranium (Pelargonium X hortorum) transformation experiments by placing geranium petiole explants into tissue culture with the addition to Tween 20 to the regeneration (shooting) medium normally used in geranium transformations (Robichon et al., 1995). Tween 20 was added at three concentrations: 1%, 0.1% and 0.01%. Each treatment consisted of 40 sterilized petiole explants placed in four tissue culture plates carrying 10 explants each. Survival of the explants was assayed weekly over four weeks on these media. Potential selective agent Span 20, also a nonionic, fatty acid ester detergent, was similarly evaluated, except that concentrations of 1%, 0.5% and 0.25% were evaluated over a twelve week period of time. The nonionic detergent Triton X-100, which is not a fatty acid ester detergent, was included for comparative purposes.

[2] = tested on: tomato leaf explants; assay: Survival of tomato leaf explants on regeneration medium with detergents; type: cell-based, Lycoperisicon esculentum; settings: 1% detergent; for Survival of tomato leaf explants on regeneration medium: surviving/total explants
Protocol: Tween 20 was similarly evaluated as a potential selective agent for use in tomato (Lycoperisicon esculentum) transformations by placing tomato leaf explants placed into tissue culture; Tween 20 was added to tomato regeneration (shooting) medium normally used in tomato transformations (Riggs et al., 2001) at a 1% concentration. Each treatment consisted of 40 sterilized leaf explants placed in four tissue culture plates carrying 10 explants each. Survival of the explants was assayed weekly over four weeks on these media.

[3] = tested on: tomato cultivar Micro-Tom leaf explants; assay: Agrobacterium transformation of tomato with selection on detergent or kanamycin; type: cell-based, Lycopersicon esculentum; settings: tomato Micro-Tom, pIPG768 nptII, 100 micrograms/ml kanamycin, Exp. 1, 98 explants; for Transformation frequency (%): confirmed by PCR
Text: Transgenic tomato (Lycopersicon esculentum) cultivar “Micro-Tom” plants were created using the Agrobacterium tumefaciens DNA delivery method [Riggs et al., 2001; Sun et al., 2006] using pIPG768. Selection was either on 1% Tween 20 added to both shoot and root regeneration media. As controls for comparative purposes, 100 micrograms/ml kanamycin was used.

[4] = tested on: tobacco cultivar Xanthi leaf explants; assay: Agrobacterium transformation of tobacco with selection on detergent or kanamycin; type: cell-based, Nicotiana tabacum; settings: tobacco Xanthi, pIPG786 nptII, 100 micrograms/ml kanamycin, 235 explants
Text: Transgenic tobacco (Nicotiana tabacum) cultivar “Xanthi” plants were created using the Agrobacterium tumefaciens DNA delivery method [Horsch et al., 1985] using pIPG833. Selection was on 1% or on 0.05% Tween 20 added to both shoot and root regeneration media. As a control for comparative purposes, pIPG786 was used (carrying the nptII gene for kanamycin resistance) for transformation and 100 micrograms/ml kanamycin was used for selection.
Transgenic tobacco (Nicotiana tabacum) cultivar “Xanthi” plants were created using the Agrobacterium tumefaciens DNA delivery method [Horsch et al., 1985] using pIPG833. Selection was on 1% or on 0.05% Span 20 added to both shoot and root regeneration media.
Transgenic tobacco (Nicotiana tabacum) cultivar “Xanthi” plants were created using the Agrobacterium tumefaciens DNA delivery method [Horsch et al., 1985] using pIPG875. Selection was on 1% Span 20 added to the shoot regeneration medium and 0.05% Span 20 added to the root regeneration medium.

[5] = Phenol red lipase/esterase assay with crude plant leaf extracts; type: biochemical; settings: transiently plant-expressed enzyme or positive control
Text: In this Figure, the first tube on the left (labeled “Buffer”) contains phenol red buffer and Tween 20 (the dark red color appears dark in this black and white figure); the second tube to the right (“SL”) has 4 Units of Sigma porcine pancreatic lipase added (the bright yellow color appears light); the third tube to the right (labeled “731”) has a twenty microliter droplet of a crude tomato plant leaf extract from leaves inoculated 4 days earlier with GV2260 carrying “empty” (ie., no lipase gene) expression vector pIPG731 (the dark red color appears dark), and the fourth tube to the right (“768 WI”) has a twenty microliter droplet of crude tomato plant leaf extract from leaves inoculated four days earlier with GV2260 carrying cloned bovine pregastric esterase expressed in pIPG768 (the bright yellow color appears light). Tomato leaf tissue particles may be seen floating in the third and fourth tubes to the right. […] The photo was taken 16 hrs. after start of the assay.
For transient expression assays of bovine PGE, the plant transformation and expression vectors constructed in Example 12 were moved into A. tumefaciens strain GV2260 by either electroporation or bacterial conjugation as described (Kapila et al., 1997). GV2260 carrying pIPG745 or pIPG746 was used for transient expression in tobacco, pepper, tomato, citrus, geranium, and rice plants as described (Kapila et al. 1997; Duan et al., 1999; Wroblewski et al. 2005). Cultures of Agrobacterium harboring the constructs of interest were grown in minimal medium in the presence of acetosyringone to induce the Agrobacterium vir genes. The optical density of the cultures was maintained at 0.008 for pepper and tomato and at 0.25 for citrus, geranium and rice. Strain GV2260 was flooded into healthy, young, fully expanded leaves of vigorous plants into the apoplastic space through open stomata by injection using a tuberculin syringe without a needle, flooding entire leaves. After 3-4 days, two grams of leaf tissue (fresh weight), was ground in liquid nitrogen to a fine powder, and 0.5 ml of ice cold phosphate buffered saline (PBS; 137 mM NaCl, 2.7 mM KCl, 10 mM potassium phosphate, pH 7.4) was added and mixed thoroughly at 4 C. The mixture was mixed on an orbital shaker at 4 C for 30 minutes, and plant debris was pelleted at 10,000×g for 15 minutes and discarded. The supernatants from these crude plant leaf extracts were directly used in lipase/esterase assays.
The second activity assay was a phenol red lipase/esterase assay using tributyrin, olive oil or Tween 20 as substrates as described by Singh et al. (2006), except that liquid medium, rather than solidified agar medium, was used. Twenty microliter droplets of crude plant leaf extracts and the positive control were placed in the tributyrin/phenol red medium containing tributyrin, olive oil or Tween 20 and incubated at 30 C overnight. […] Transient expression of bovine PGE was confirmed in tobacco, pepper, tomato, citrus, geranium, and rice plants.
For transient expression assays, the plant transformation and expression vectors constructed in Example 15 were moved into A. tumefaciens strain GV2260 by electroporation. GV2260 carrying pIPG823 was used for transient expression in tobacco and geranium plants exactly as described in Example 20. The supernatants from crude plant leaf extracts were directly used in phenol red lipase/esterase assays using tributyrin and olive oil as substrates exactly as described in Example 20.

Triton X-100
Survival of geranium petiole explants on regeneration medium ([1]; 0.01% detergent, Week 1): 39/40
Survival of geranium petiole explants on regeneration medium ([1]; 0.01% detergent, Week 2): 39/40
Survival of geranium petiole explants on regeneration medium ([1]; 0.01% detergent, Week 3): 39/40
Survival of geranium petiole explants on regeneration medium ([1]; 0.01% detergent, Week 4): 14/40
Survival of geranium petiole explants on regeneration medium ([1]; 0.1% detergent, Week 1): 40/40
Survival of geranium petiole explants on regeneration medium ([1]; 0.1% detergent, Week 2): 40/40
Survival of geranium petiole explants on regeneration medium ([1]; 0.1% detergent, Week 3): 40/40
Survival of geranium petiole explants on regeneration medium ([1]; 0.1% detergent, Week 4): 9/40
Survival of geranium petiole explants on regeneration medium ([1]; 1% detergent, Week 1): 39/40
Survival of geranium petiole explants on regeneration medium ([1]; 1% detergent, Week 2): 39/40
Survival of geranium petiole explants on regeneration medium ([1]; 1% detergent, Week 3): 37/40
Survival of geranium petiole explants on regeneration medium ([1]; 1% detergent, Week 4): 19/40
Killing of geranium explants in tissue culture (in words) ([1]; summary of Table 1): much less efficient and much more variable in killing
Survival of tomato leaf explants on regeneration medium ([2]; Week 1): 40/40
Survival of tomato leaf explants on regeneration medium ([2]; Week 2): 40/40
Survival of tomato leaf explants on regeneration medium ([2]; Week 3): 10/40
Survival of tomato leaf explants on regeneration medium ([2]; Week 4): 7/40
Killing of tomato explants in tissue culture (in words) ([2]; summary of Table 2): both less effective and unpredictable in killing

NC[C@H]1O[C@H](O[C@H]2[C@H](O)[C@@H](O[C@H]3O[C@H](CO)[C@@H](O)[C@H](N)[C@H]3O)[C@H](N)C[C@@H]2N)[C@H](O)[C@@H](O)[C@@H]1O [kanamycin, reference compound]
No. of independent calli forming shoots [3]: 40
No. of rooted shoots [3]: 40
Transformation frequency (%) [3]: 1%
Transformation frequency (%) ([3]; listed as Kanamycin): 1%
No. of independent calli forming shoots [4]: 55
No. of rooted shoots [4]: 55
Transformation frequency (%) ([4]; confirmed by PCR): 19%

B1: bovine PGE: bovine pregastric esterase, cloned from calf salivary glands and expressed in plants (protein)
chain: MWWLLVTVCFIHMSGNAFCFLGKIAKNPEASMNVSQMISYWGYPSEMHKVITADGYILQVYRIPHGKNNANHLGQRPVVFLQHGLLGSATNWISNLPKNSLGFLLADAGYDVWLGNSRGNTWAQEHLYYSPDSPEFWAFSFDEMAEYDLPSTIDFILRRTGQKKLHYVGHSQGTTIGFIAFSTNPTLAEKIKVFYALAPVATVKYTKSLFNKLALIPHFLFKIIFGDKMFYPHTFLEQFLGVEMCSRETLDVLCKNALFAITGVDNKNFNMSRLDVYIAHNPAGTSVQNTLHWRQAVKSGKFQAFDWGAPYQNLMHYHQPTPPIYNLTAMNVPIAVWSADNDLLADPQDVDLLLSKLSNLIYHKEIPNYNHLDFIWAMDAPQEVYNEIVSLMAEDKKEL
modifications: Bovine pregastric esterase cloned by IPG, translation product, with native leader and two amino acids added to form an ER retention signal sequence
notes: bovine pregastric esterase, cloned from calf salivary glands and expressed in plants
Substrates utilized in phenol red lipase/esterase assay [5]: utilized all three substrates: tributyrin, olive oil and Tween 20

B2: nematode triglyceride lipase-cholesterol esterase: C. elegans triglyceride lipase-cholesterol esterase expressed in plants (protein)
chain: MKSLLLLFLLFLHTLCENVTTPNSEEDTDMTATPSTITPLLSTAQNPSLPKTSKLPLALKTPVPTFPFSSLATSDWLSSMPTIQTLLPPPLPLTTLEVPENENFGFTSLAPLWTLPTQPPAWSPMLDSPIKPIQNSMFPTFPTMPTLPTLPTLAPFTFPTLPPPTTMKPLNITIDPEALMDVPEIITHWGYPVETHKVVTVDGYILTLHRIPHSKNETSKSASKTPKPVVFLQHGLLCTSSIWLLNLPRQSAGYIFADQGYDVWLGNMRGNTYSKEHTRMTSADRRFWKFSWEEMARYDLPAMINYALKTTKRQNLYYVGHSQGALTMFAKMSEDPEMSKKIRKFFAMAPVARMSHVKGLFQNLGQIYEQYNLVYQVFGDGEFLTNNIFTKLLTDIFCDQAVNNPLCENFIFAVSGPNSNQFNNSRIGIYLAHNPAGTSSRNILHFAQMVKKKRMSRFDHGKDLNLKIYGAPSPPEYDIRKINSSIYLFYSDFDWLANPKDVEGFLIPMLPSKTLKKATKLRDFNHNDFLWGMRARKEIYDKIINTIKLDQRRVKLQNSMERFFERQSRNPTSGLDEETMMRLRNETMNLD
modifications: Caenorhabditis elegans
notes: C. elegans triglyceride lipase-cholesterol esterase expressed in plants
Substrates utilized in phenol red lipase/esterase assay [5]: utilized tributyrin and olive oil
